We go through 16 compounds from paper PMC4304654 (Bioorganic & medicinal chemistry, 2012).

≈ marks a conversion by molar mass, not a printed value.

One may read the solubility as the dissolved amount per volume that the medium holds. A higher solubility goes with a readily soluble substance.

The data set in a line: Aqueous solubility in the sodium acetate buffer of the fibrillization assay. It counts as physicochemical.
Turning to `Nc1scc2c(C(=O)O)nn(-c3ccc(C(F)(F)F)cc3)c(=O)c12` [Compound 38, 5-Amino-4-oxo-3-(4-(trifluoromethyl)phenyl)-3,4-dihydrothieno[3,4-d]pyridazine-1-carboxylic acid], the solubility was greater than 200 µM. `CCOC(=O)c1c(C(=O)c2ccccc2)csc1N` [Compound 54, Ethyl 2-amino-4-benzoylthiophene-3-carboxylate]: the solubility is greater than 200 µM. Next, `CCOC(=O)c1nn(-c2ccc(C(F)(F)F)cc2)c(=O)c2c(N)scc12` [Compound 30, Ethyl 5-amino-4-oxo-3-(4-(trifluoromethyl)phenyl)-3,4-dihydrothieno[3,4-d]pyridazine-1-carboxylate]: 32 µM (≈ 12.3 µg/mL). Next, `Nc1scc2c(C(=O)NC3CC3)nn(-c3ccccc3Cl)c(=O)c12` [Compound 45, 5-Amino-3-(2-chlorophenyl)-N-cyclopropyl-4-oxo-3,4-dihydrothieno[3,4-d]pyridazine-1-carboxamide]: 80 µM (≈ 28.9 µg/mL). Next, `Nc1scc2c(C(=O)O)nn(-c3ccc(OC(F)(F)F)cc3)c(=O)c12` [Compound 39, 5-Amino-4-oxo-3-(4-(trifluoromethoxy)phenyl)-3,4-dihydrothieno[3,4-d]pyridazine-1-carboxylic acid]: greater than 200 µM.

Take `Cc1nn(C2CCCCC2)c(=O)c2c(N)scc12` [Compound 59, 7-Amino-2-cyclohexyl-4-methylthieno[3,4-d]pyridazin-1(2H)-one]: the solubility is greater than 200 µM. Regarding `Cc1nn(-c2ccc(Cl)cc2)c(=O)c2c(N)scc12` [Compound 63, 7-Amino-2-(4-chlorophenyl)-4-methylthieno[3,4-d]pyridazin-1(2H)-one], the concentration in solution (solubility) was 80 µM (≈ 23.3 µg/mL). The compound `Cc1nn(-c2ccccn2)c(=O)c2c(N)scc12` [Compound 60, 7-Amino-4-methyl-2-(pyridin-2-yl)thieno[3,4-d]pyridazin-1(2H)-one] yielded a solubility greater than 200 µM. Next, `CCOC(=O)c1nn(-c2cccc(Cl)c2)c(=O)c2c(N)scc12` [Compound 28, Ethyl 5-amino-3-(3-chlorophenyl)-4-oxo-3,4-dihydrothieno-[3,4-d]pyridazine-1-carboxylate]: 32 µM (≈ 11.2 µg/mL). Next, `Nc1scc2c(C(=O)O)nn(-c3ccc(F)cc3)c(=O)c12` [Compound 34, 5-Amino-3-(4-fluorophenyl)-4-oxo-3,4-dihydrothieno[3,4-d]pyridazine-1-carboxylic acid]: greater than 200 µM.

On to `CCOC(=O)c1nn(-c2ccc(O)cc2)c(=O)c2c(N)scc12` [Compound 32, Ethyl 5-amino-3-(4-hydroxyphenyl)-4-oxo-3,4-dihydrothieno[3,4-d]pyridazine-1-carboxylate], for which the solubility came out at 12.8 µM (≈ 4.24 µg/mL). Next, `CC(C)n1nc(-c2ccccc2)c2csc(N)c2c1=O` [Compound 65, 7-Amino-2-isopropyl-4-phenylthieno[3,4-d]pyridazin-1(2H)-one]: greater than 200 µM; `CCOC(=O)c1nn(-c2ccc(OC(F)(F)F)cc2)c(=O)c2c(N)scc12` [Compound 31, Ethyl 5-amino-4-oxo-3-(4-(trifluoromethoxy)phenyl)-3,4-dihydrothieno[3,4-d]pyridazine-1-carboxylate]: 12.8 µM (≈ 5.11 µg/mL); `Cc1nn(C(C)C)c(=O)c2c(N)scc12` [Compound 57, 7-Amino-2-isopropyl-4-methylthieno[3,4-d]pyridazin-1(2H)-one]: 80 µM (≈ 17.9 µg/mL).

With `Cc1nn(CC(F)(F)F)c(=O)c2c(N)scc12` [Compound 58, 7-Amino-4-methyl-2-(2,2,2-trifluoroethyl)thieno[3,4-d]pyridazin-1(2H)-one], the solubility was greater than 200 µM. Next, `CC(C)c1ccc(-n2nc(C(=O)NC3CC3)c3csc(N)c3c2=O)cc1` [Compound 50, 5-Amino-N-cyclopropyl-3-(4-isopropylphenyl)-4-oxo-3,4-dihydrothieno[3,4-d]pyridazine-1-carboxamide]: 80 µM (≈ 29.5 µg/mL).
